Experiments:
[1] = molecular target: T1, GacSH1 (Pseudomonas aeruginosa, UniProt G3XD98); details: 0.1 mM ATP, 5 mM MgCl2, 50 mM KCl, 50 mM Tris-HCl pH 7.6, 1 mM DTT, room temperature, 20 min; GacSD1 present; labelled compound
T1 construct: gene gacS

[2] = molecular target: T2, LadSH1D1 (Pseudomonas aeruginosa, UniProt Q9HX42); details: 0.1 mM ATP, 5 mM MgCl2, 50 mM KCl, 50 mM Tris-HCl pH 7.6, 1 mM DTT, room temperature, 20 min; labelled compound; phosphoryl transfer to H428
T2 construct: gene ladS
T2 sequence (Q9HX42 entry or part of it): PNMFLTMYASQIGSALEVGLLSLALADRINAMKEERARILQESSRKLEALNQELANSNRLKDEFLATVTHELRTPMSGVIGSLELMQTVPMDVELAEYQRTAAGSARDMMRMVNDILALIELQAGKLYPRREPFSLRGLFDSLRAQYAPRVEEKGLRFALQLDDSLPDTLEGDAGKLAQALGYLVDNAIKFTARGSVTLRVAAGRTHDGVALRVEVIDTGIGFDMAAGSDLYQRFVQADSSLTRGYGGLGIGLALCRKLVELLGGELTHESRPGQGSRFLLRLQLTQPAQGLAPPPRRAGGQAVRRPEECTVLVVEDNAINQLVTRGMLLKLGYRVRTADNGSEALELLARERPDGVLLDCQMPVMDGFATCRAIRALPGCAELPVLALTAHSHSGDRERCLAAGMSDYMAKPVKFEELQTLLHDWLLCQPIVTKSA

T1 sequence (G3XD98 entry or part of it): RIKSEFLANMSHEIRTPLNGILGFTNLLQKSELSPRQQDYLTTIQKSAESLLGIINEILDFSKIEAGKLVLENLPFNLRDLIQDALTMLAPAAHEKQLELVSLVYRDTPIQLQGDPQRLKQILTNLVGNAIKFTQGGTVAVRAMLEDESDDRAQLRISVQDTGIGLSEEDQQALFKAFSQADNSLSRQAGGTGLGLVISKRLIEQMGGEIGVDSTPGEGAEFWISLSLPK

SMILES: Nc1ncnc2c1ncn2[C@@H]1O[C@H](COP(=O)(O)OP(=O)(O)OP(=O)(O)O)[C@@H](O)[C@H]1O [[γ-^32P]ATP]
- autophosphorylation and phosphotransfer to GacSD1, SDS-PAGE and autoradiography [1]: between the H1 domain of GacS and the D1 domain of GacS
- autophosphorylation, SDS-PAGE and autoradiography [2]: LadSH1D1 and LadSH1D1D→A proteins were found in an autophosphorylated form

Source: paper PMC4866733 (PLoS Genetics, 2016)
